# According to a melting point compilation (Tetko et al.; mined from patent text by program, amines drawn as free bases though some values may be those of a salt):
# Residues, ends and D or L forms follow the SMILES beside them. *: point of attachment. Boc = CC(C)(C)OC(=O)*; Bn = c1ccc(C*)cc1
row,SMILES,melting point
1,COc1ccc(CCc2cc3cc(C#N)ccc3o2)c(CC(=O)OCc2ccccc2)c1,127 to 128 °C
2,CCC(=O)Nc1c(C#N)cnn1-c1nc(NCc2ccccc2)c(C(F)(F)F)cc1Cl,139 to 142 °C
3,CCOC1=NS(=O)(=O)c2cc(I)ccc21,185 to 190 °C
4,COC1CC(NC(=O)C(F)(F)F)C(OCc2ccccc2)C(C)O1 (centres undefined),159 to 160 °C
5,O=C(O)c1cc(C(=O)C2CCCCC2)cc2c1OC(c1ccccc1)(c1ccccc1)O2,212 to 214 °C
6,C[Si](C)(C)c1ccc2cc(C(=O)Nc3cnc4sc(CO)nc4c3)n(Cc3nccs3)c2c1,219 to 220 °C
7,O=C(NCC12CC3CC(CC(C3)C1)C2)c1cc(-c2cc(F)c(F)cc2C(=O)O)ccc1Cl,121 to 125 °C
8,Cc1cc2c(nc1OCCCCN1CCN(c3cccc4ccccc34)CC1)NC(=O)CC2,76 to 78 °C
9,CCC(CC)c1ccc(Cl)c2nc3n(c12)CCCCN3c1c(C)cc(C)cc1OC,196 to 198 °C
10,CCn1c(=O)c2[nH]c(C(C)=Cc3ccccc3)nc2n(CC)c1=O,251 to 252 °C
11,COC(=O)C(CC(C)C)NC(=O)C(C)NC(=O)C(Cc1ccc(OCc2ccccc2)cc1)NC(=O)C(COCc1ccccc1)NC(=O)OC(C)(C)C (centres undefined) (Boc-S(Bn)Y(Bn)AL-OMe; configuration not given here),67 to 71 °C
12,NCC1Cc2cc(-c3ccccc3F)cc(F)c2O1 (centres undefined),> 250 °C
13,N#CC(=CC=Cc1ccccc1)C(=O)O,196 °C
14,CC(C)CC(=O)c1c(-c2ccc3cc(OCC(=O)O)cc(Br)c3c2)oc2ccccc12,140 to 142 °C
15,CC(=O)OC1CCC2(C)C(=CCC3C2CCC2(C)C(n4cnc5ccccc54)=C(C=O)CC32)C1 (centres undefined),227 to 230 °C
16,CC1CC(=O)NN=C1c1ccc(Nc2nc(=O)c3ccccc3[nH]2)cc1 (centres undefined),313 to 319 °C
17,COc1ccccc1OCCCCCOc1ccc(C#N)cc1,61 to 63 °C
18,C=Cc1ccc(CSC2C(=O)N(c3c(Cl)cc(Cl)cc3Cl)N=C2Nc2cc(NC(C)=O)ccc2Cl)cc1 (centres undefined),240 °C
19,CC(C)(C)C(O)(Cn1cncn1)C(Cl)=CBr (centres undefined),45 to 48 °C
20,O=C1N(Cc2nc3ncccc3o2)c2ccccc2C12COc1cc3c(cc12)OCO3 (centres undefined),202 to 204 °C
21,CC1=C(c2ccccc2)n2nc(C)c3c(=O)[nH]c(=S)n(c32)C1,255 to 257 °C
22,CC(C)=Cc1ccc(-c2ccc(C(CC3CCOCC3)c3ccc(S(=O)(=O)C4CC4)cc3)[nH]2)nc1 (centres undefined),114 to 116 °C
23,CC(C)(C)OCCOc1cc(N)c([N+](=O)[O-])cc1I,144 to 146 °C
24,COC(=O)c1ccc(O)c(C(=O)CC(=O)c2cccnc2)c1,200 to 202 °C
25,CCOC(=O)COc1cccc(/C=C/c2nc3ccccc3s2)c1,150 to 151 °C

row,SMILES,melting point
1,O=c1ccc(-c2ccc(-n3ccnc3)nc2)n[nH]1,261 to 263 °C
2,NC(=O)c1cccc(OCc2ccc(F)cc2)c1,161 to 162 °C
3,CC(Oc1cccc(Cl)c1)c1nnc(N)s1 (centres undefined),136 to 138 °C
4,COc1cc(C=O)cc2c1OC1(C=C2Br)CCC1,128 to 129 °C
5,CN1CC(=O)Nc2cccc(I)c2C1=O,214 to 217 °C
6,O=C1CNc2ncc(-c3cccnc3)cc2N1Cc1c(Cl)cccc1Cl,> 200 °C
7,Cc1[nH]nc(Oc2ncc(C(F)(F)F)cc2Cl)c1C,102 to 103 °C
8,COc1ccc(CCNCC(O)CO)cc1OC (centres undefined),80 to 82 °C
9,CCOCc1nc2c(N)nc3cc(-c4cccnc4)ccc3c2n1CCNS(C)(=O)=O,233 to 235 °C
10,C[Si](C)(C)C#CC1(O)CCCCC1,72 to 73 °C
11,CCOC(=O)C(=O)Nc1cc(Cl)c(Cl)c(Cl)c1,148 to 151 °C
12,O=C(c1ccc(O)c(Cl)c1)c1ccc(Cl)cc1Cl,145 °C
13,CC(=O)OCc1nnc(N)s1,191 to 192 °C
14,CCN1C(=O)C(C(=O)Nc2ccc(Cl)cc2)c2cc3c(cc21)CCO3 (centres undefined),175 to 176 °C
15,COc1ccc(-c2nc(C)nn2-c2ccccc2S(N)(=O)=O)cc1OC,176 to 178 °C
16,COC(=O)Nc1cc2c(=O)n(NS(C)(=O)=O)c(=O)[nH]c2cc1C(F)(F)F,232 to 240 °C
17,C[C@H]1C(=O)C[C@@H]2C[C@H]1OO[C@]2(C)/C=C/C(=O)c1ccc(Cl)cc1,127 °C
18,CC(C)c1ccc(SCc2c(C(C)C)nc(C(C)C)c(CO)c2-c2ccc(F)cc2)cc1,108 to 109 °C
19,CC1=C(C(=O)N(C)C)C(c2ccccc2)C(C(N)=O)=C(N)N1 (centres undefined),236 °C
20,Cn1c(=O)[nH]c(=O)c2c1ncn2Cc1noc(Cc2ccccc2)n1,188 to 190 °C
21,COc1cc(N)ccc1S(=O)(=O)n1c(=O)n(C2CCCCCC2)c2cc(Cl)ccc21,219 °C
22,Cc1ccc(C)c(-c2cc(CO)ccc2CO)c1,145 to 148 °C
23,Cc1ccccc1NC(=O)Nc1ccc(N)cc1,> 300 °C
24,NNC(=O)c1nc(CS(=O)(=O)c2ccc(Cl)cc2)no1,177 °C
25,Brc1cc2c(cc1Br)Sc1ccccc1S2,160 to 161 °C

row,SMILES,melting point
1,COc1ccc(/C=C/c2nc3ccccc3c(=O)o2)cc1OC,175 to 179 °C
2,Cc1n[nH]c(=O)cc1-c1ccc(OC2CCN(C(=O)OC(C)(C)C)CC2)cc1,184 to 186 °C
3,O=C(Oc1ccccc1)Sc1nc2ccccc2n1C1CCN(C(=O)Oc2ccccc2)CC1,200 to 203 °C
4,CCCCOCCOc1ccc(-c2ccc(N3CCOCC3)c(C=CC(=O)O)c2)cc1,155 to 157 °C
5,COC(=O)Nc1nc(-c2ccccc2)c(-c2nc3ccccc3c(=O)n2-c2ccccc2Cl)s1,> 275 °C
6,O=CNCc1ccc2[nH]cc(CCN3C(=O)c4ccccc4C3=O)c2c1,45 °C
7,Cc1cc(SCc2ccc(OCc3ccc(C(F)(F)F)cc3)cc2)ccc1OCC(=O)O,133 °C
8,CCCCNc1c2c(nc3c1cnn3CC)C(=O)c1ccccc1CC2,181 to 183 °C
9,CC(C)c1nsc(N=C(F)N(C)C)c1C#N,100 to 102 °C
10,N#Cc1c[nH]cc1-c1ccc(Cl)cc1C(=O)c1ccccc1F,177 to 179 °C
11,Cc1cnc2c(c1)CCCC2S(=O)(=O)c1ccccc1 (centres undefined),84 to 86 °C
12,CC(=O)C(=O)Oc1ccc(NCc2c(F)c(F)c(C(F)(F)F)c(F)c2F)cc1C(=O)O,128 °C
13,COc1ccc2c(c1)CCC1C2CCC2(C)C(NCCCCCCN)CCC12 (centres undefined),93 to 94 °C
14,Cn1nc(-c2ccccc2)cc1-c1ccccc1,52 to 53 °C
15,CC(C)[C@]1(CCc2ccccc2)CC(O)=C(Sc2cc3sc(N)nc3cc2C(C)(C)C)C(=O)O1,186 to 188 °C
16,COc1ccc(/C(=C\C=C\C(=O)Oc2ccc([N+](=O)[O-])cc2)c2ccccc2OC)cc1,134 to 135 °C
17,COc1ccc(CCNC(=O)C2CCC2)cc1C,103 to 104 °C
18,Cc1cc(C(F)(F)F)nn1CC(=O)N1CCC(c2nc(NC(=O)C3CCCc4ccccc43)cs2)CC1 (centres undefined),179 to 181 °C
19,C#CCN1C(=O)COc2ccc(N)cc21,136 to 140 °C
20,CCOC(=O)C1=C(C)NC(N=CCN(C)C)=C(C(=O)OCC)C1c1cccc([N+](=O)[O-])c1 (centres undefined),172 °C
21,CC(C)=CC(=O)N1CCN(C(Cc2cccc(O)c2)c2ccccc2)CC1 (centres undefined),186 to 187 °C
22,CCOC(=O)C1=C(C)Nc2nc(N3CCOCC3)nc(N3CCOCC3)c2C1c1cccc(C#N)c1 (centres undefined),210 °C
23,O=C(O)COCCC1CCCN(c2cnc(-c3ccccc3)c(-c3ccccc3)n2)C1 (centres undefined),139 to 140 °C
24,C=CCC1(C(=O)N2CCCCC2)c2ccccc2-c2ccccc21,64 to 66 °C
25,CNc1c(SC(F)(F)F)c(C#N)nn1-c1c(Cl)cc(C(F)(F)F)cc1Cl,208 to 210 °C

row,SMILES,melting point
1,CC(C)CC1(SCCCN=[N+]=[N-])c2c([nH]c(=O)n(C)c2=O)SC1Cc1cccc2ccccc12 (centres undefined),94 to 96 °C
2,CCn1c(=O)n(C)c(=O)c2c(C)onc21,88 to 89 °C
3,CC(C)S(=O)(=O)Nc1ccc([C@@H](C)C(=O)N[C@@H](C)C(N)=O)cc1,132 to 135 °C
4,C[C@@H](Nc1ncnc2cc(N)ncc12)c1ccccc1,232 °C
5,COc1ccc(NS(=O)(=O)c2cc(OC)c(OC)c(OC)c2)cc1O,145 to 146 °C
6,O=C(O)c1cc(-c2ccc(C(F)(F)F)cc2)c2c3c(ccc2c1)OCO3,207 to 209 °C
7,CS(=O)Cc1ccc(Cl)nc1 (centres undefined),72 to 74 °C
8,COc1cc(OCc2nc(-c3ccco3)oc2C)ccc1CO,117 to 118 °C
9,CC(NC(=O)c1cc(Cl)cc(Br)c1NC(=O)c1cc(Br)nn1-c1ncccc1Cl)C1CC1 (centres undefined),244 to 247 °C
10,O=C(NC1CCCCC1)c1ccc2nonc2c1,172 to 173 °C
11,COc1ccc(Cl)cc1C(=O)NCCc1ccc(-c2ccccn2)c(S(N)(=O)=O)c1,202 to 203 °C
12,O=Cc1c(F)cccc1Br,35 to 37 °C
13,Cc1cc(-c2ccc(C(F)(F)F)cc2)nc(-n2cnc(-c3ccc(S(N)(=O)=O)cc3)c2)n1,323 °C
14,CCOC(=O)CCCCOc1ccc([N+](=O)[O-])c(/C=C2\CC(=O)NC2=O)c1,112 °C
15,c1ccc(CN2CCN(c3nc4cccc5c4n3CCC5)CC2)cc1,157 to 158 °C
16,NCC(=O)SCC(Cc1ccccc1)C(=O)Nc1cccc(C(=O)O)c1 (centres undefined),91 to 96 °C
17,COc1ccc2cc([C@H](C)C(=O)OCC(C)(CO)CO)ccc2c1,105 °C
18,NCCc1cccc(N2C(=O)N(c3c(Cl)cccc3Cl)Cc3cnc(Nc4ccccc4)nc32)c1,208 °C
19,CCOC(=O)c1cc2c3n(ccc-2n1)CC(C(F)(F)F)=N3,230 to 231 °C
20,O=S1(=O)NCNc2c(-c3ccccc3)cc(-c3ccccc3)cc21,222 to 225 °C
21,C[C@@H](c1ccc(-c2ccc(C#N)cn2)cc1)N1CC[C@](CC(C)(C)O)(c2ccccc2)OC1=O,160 to 162 °C
22,FC(F)(F)Oc1ccc2nc(Cc3cn4ccsc4n3)[nH]c2c1,177 to 179 °C
23,CC(=O)NN1C(=O)c2cc3ccc4c(c3c(-c3ccc5c(c3)OCO5)c2C1=O)OCO4,281 to 283 °C
24,COc1cc2oc(=O)c3c(c2cc1OC)CCN(CCN1CC2CCCC(C2)C1)C3,122 to 125 °C
